The record followed here is patent publication US5258401A, “Cholesterol lowering compounds” (Merck & Co., Inc., priority 1992, dated 1993).

In brackets after ≈: the same amount, converted by molar mass.

Assay type in all cases: cell-based
The subject of one experiment is Aspergillus MF 0383. Nature of the experiment: Antifungal inhibitor dilution assay in microtiter format (filamentous fungi). The following applies: MF0383, lowest concentration to prevent growth, read-out: Minimum Inhibitory Concentration. As to the method: (§1) The compounds are particularly active towards filamentous fungi and yeasts including Candida albicans and Cryptococcus neoformans. The sensitivity of filamentous fungi and yeast is determined using inhibitor dilution assays in microtiter format. The compounds are dissolved in DMSO at 2 mg/ml and serially diluted in 0.1M phosphate buffer, pH 7.0 in the microtiter dish from 100 to 0.006 μg/ml. A standardized spore suspension for testing the filamentous fungi is prepared by inoculating Antibiotic Medium #3 containing 1.5% agar with spores such that 1.5×10^3 colony forming units are added per well. The microtiter wells are filled with 50 μof buffer containing compound and 50 μl of inoculated medium.
(§2) The sensitivity of yeasts is determined by inoculating yeast nitrogen base containing 1% dextrose (YNB/G) with aliquots of an overnight yeast culture grown in Yeast Morphology (YM) media at 35° C. and diluting in YNB/G to yield a final concentration of 1.5-7.5×10^3 colony forming units/well. To test the sensitivity of yeast, compound is solubilized in 10 percent aqueous DMSO at 2.56 mg/ml. The compound is diluted serially in YNB/G from 128 to 0.06 μg/ml and further diluted 1:10 in YNB/G. The wells are filled with 150 μl of media containing drug. The minimum inhibitory concentration (MIC) is defined as the lowest concentration to prevent growth after an incubation for 42 hours, at 28° C. for the filamentous fungi and 24 to 48 hours, at 35° for the yeasts.

The test system of another experiment is Aspergillus MF 5668. The description is as above. The following applies: MF5668, lowest concentration to prevent growth, read-out: Minimum Inhibitory Concentration. Here is the method:
as §1, §2

The test system of the next experiment is Aspergillus MF 4839. The experiment is described as above. The following applies: MF4839, lowest concentration to prevent growth, read-out: Minimum Inhibitory Concentration. As to the method: as §1, §2
Another experiment relates to Aspergillus MF 5669. The experiment is described as above. The following applies: MF5669, lowest concentration to prevent growth, read-out: Minimum Inhibitory Concentration. As to the method: as §1, §2
The next experiment has as its system Candida MY 1010. Description: Antifungal inhibitor dilution assay in microtiter format (yeasts). The following applies: MY1010, lowest concentration to prevent growth, read-out: Minimum Inhibitory Concentration. As to the method: as §1, §2
The next experiment has as its system Candida MY 1055. Described as above. The following applies: MY1055, lowest concentration to prevent growth, read-out: Minimum Inhibitory Concentration. Here is the method: as §1, §2
The next experiment has as its system Candida MY 2099. The description is as above. The following applies: MY2099, lowest concentration to prevent growth, read-out: Minimum Inhibitory Concentration. Here is the method: as §1, §2
In a further experiment the test system is Candida MY 1012. The experiment is described as above. The following applies: MY1012, lowest concentration to prevent growth, read-out: Minimum Inhibitory Concentration. As to the method: as §1, §2
Another experiment has as its system Cryptococcus MY 2062. The experiment is described as above. The following applies: MY2062, lowest concentration to prevent growth, read-out: Minimum Inhibitory Concentration. As to the method:
as §1, §2

For the next experiment, the system named is Candida MY 1750. The description is as above. The following applies: MY1750, lowest concentration to prevent growth, read-out: Minimum Inhibitory Concentration. Here is the method: as §1, §2
The subject of another experiment is Sachromyces MY 1976. The description is as above. The following applies: lowest concentration to prevent growth, read-out: Minimum Inhibitory Concentration. As to the method:
as §1, §2

Another experiment has as its system Candida MY 1028. The description is as above. The following applies: MY1028, lowest concentration to prevent growth, read-out: Minimum Inhibitory Concentration. Here is the method: as §1, §2
The subject of the next experiment is Cryptococcus MY 2061. The experiment is described as above. The following applies: MY2061, lowest concentration to prevent growth, read-out: Minimum Inhibitory Concentration. As to the method:
as §1, §2

For the next experiment, the system named is Candida MY 1019. The experiment is described as above. The following applies: MY1019, lowest concentration to prevent growth, read-out: Minimum Inhibitory Concentration. As to the method:
as §1, §2

The test system of the next experiment is Cryptococcus MY 1146. The experiment is described as above. The following applies: MY1146, lowest concentration to prevent growth, read-out: Minimum Inhibitory Concentration. As to the method:
as §1, §2

The next experiment deals with Cryptococcus MY 1051. The experiment is described as above. The following applies: MY1051, lowest concentration to prevent growth, read-out: Minimum Inhibitory Concentration. Here is the method: as §1, §2

Consider `C=C(CC[C@]12OC[C@@](O)(C(=O)OCOC(=O)C(C)(C)C)[C@](C(=O)O)(O1)[C@H](OC(=O)/C=C/[C@@H](C)C[C@@H](C)CC)[C@H]2O)[C@@H](OC(C)=O)[C@H](C)Cc1ccccc1` [Zaragozic acid A-3-descarboxy-4-methyl pivalate ester], for which the MIC in the experiment on Aspergillus MF 0383 is 1 µg/mL (≈ 1.31 µM); in the experiment with Aspergillus MF 5668 it was 32 µg/mL (≈ 42.1 µM); in the experiment on Aspergillus MF 4839, 32 µg/mL (≈ 42.1 µM); in the experiment with Aspergillus MF 5669, 32 µg/mL (≈ 42.1 µM); with Candida MY 1010 it was > 128 µg/mL; in the experiment on Candida MY 1055 it was > 128 µg/mL. The MIC was > 128 µg/mL with Candida MY 2099; 16 µg/mL (≈ 21 µM) with Candida MY 1012; 8 µg/mL (≈ 10.5 µM) in the experiment with Cryptococcus MY 2062; > 128 µg/mL with Candida MY 1750; > 128 µg/mL in the experiment with Sachromyces MY 1976; > 128 µg/mL with Candida MY 1028. Further, the MIC was 64 µg/mL (≈ 84.1 µM) with Cryptococcus MY 2061, > 128 µg/mL in the experiment with Candida MY 1019, 8 µg/mL (≈ 10.5 µM) in the experiment with Cryptococcus MY 1146 and 2 µg/mL (≈ 2.63 µM) in the experiment on Cryptococcus MY 1051.
In the case of `C=C(CC[C@]12OC[C@@](O)(C(=O)O)[C@](C(=O)O)(O1)[C@H](OC(=O)/C=C/[C@@H](C)C[C@@H](C)CC)[C@H]2O)[C@@H](OC(C)=O)[C@H](C)Cc1ccccc1` [Zaragozic Acid A-3-Descarboxy, (1S,4S,5R,6R,7R)-1-[(4S)-acetoxy-3-methylene-(5R)-methyl-6-phenyl]hexyl-4,6,7-trihydroxy-6-O-((4S),(6S)-dimethyl-2-octenoyl)-2,8-dioxabicyclo-[3.2.1]octane-4,5-dicarboxylic acid], the MIC with Aspergillus MF 0383 amounted to 2 µg/mL (≈ 3.09 µM); in the experiment on Aspergillus MF 5668, 32 µg/mL (≈ 49.5 µM); in the experiment on Aspergillus MF 4839, 8 µg/mL (≈ 12.4 µM); in the experiment on Aspergillus MF 5669, 8 µg/mL (≈ 12.4 µM); with Candida MY 1010, 64 µg/mL (≈ 99 µM); in the experiment on Candida MY 1055, 64 µg/mL (≈ 99 µM). The MIC with Candida MY 2099 was > 128 µg/mL; with Candida MY 1012 it was 16 µg/mL (≈ 24.7 µM); in the experiment on Cryptococcus MY 2062 it was 1 µg/mL (≈ 1.55 µM); in the experiment with Candida MY 1750 it was 64 µg/mL (≈ 99 µM); with Sachromyces MY 1976 it was > 128 µg/mL; in the experiment with Candida MY 1028 it was 32 µg/mL (≈ 49.5 µM). Moreover, the MIC is 4 µg/mL (≈ 6.18 µM) in the experiment with Cryptococcus MY 2061, > 128 µg/mL in the experiment with Candida MY 1019, 2 µg/mL (≈ 3.09 µM) with Cryptococcus MY 1146 and 0.25 µg/mL (≈ 0.387 µM) in the experiment with Cryptococcus MY 1051.
